Earlier results, collected in patent US8828977B2, “Method of treating a subject suffering from degenerative disc disease using a matrix metalloprotease inhibitor” (priority 2006, dated 2014).
Values after ≈ are worked out from the molar mass of the structure shown. Read-outs that look alike come from different tables or passages of the source. Values belong to the compound of their own block, whether it stands above or below them.

How the values were obtained:
[1] = tested on: immune responses; conditions: in vivo
[2] = mice
[3] = molecular target: T1, MMP-2 (Homo sapiens, UniProt P08253)
T1 sequence (P08253 110-660): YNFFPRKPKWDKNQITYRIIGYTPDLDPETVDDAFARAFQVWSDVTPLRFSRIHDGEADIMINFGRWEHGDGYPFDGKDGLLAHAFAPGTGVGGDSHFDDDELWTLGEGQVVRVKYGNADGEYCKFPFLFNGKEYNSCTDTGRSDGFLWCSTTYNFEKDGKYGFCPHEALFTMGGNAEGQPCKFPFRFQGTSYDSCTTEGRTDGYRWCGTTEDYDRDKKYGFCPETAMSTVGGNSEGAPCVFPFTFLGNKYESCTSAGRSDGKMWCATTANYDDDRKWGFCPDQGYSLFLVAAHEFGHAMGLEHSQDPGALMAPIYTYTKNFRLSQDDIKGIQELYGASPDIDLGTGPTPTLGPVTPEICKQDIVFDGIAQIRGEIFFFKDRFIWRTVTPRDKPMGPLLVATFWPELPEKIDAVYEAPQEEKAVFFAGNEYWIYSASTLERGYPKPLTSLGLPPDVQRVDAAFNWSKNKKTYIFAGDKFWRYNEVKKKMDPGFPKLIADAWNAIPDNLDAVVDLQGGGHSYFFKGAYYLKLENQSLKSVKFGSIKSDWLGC

[4] = tested on: panel of prostate cancer cell lines; conditions: MTT assays
[5] = tested on: lung foci (experimental metastasis); conditions: SCID mice
[6] = molecular target: T1, MMP-2; conditions: of the seven CMTs evaluated, zymography
[7] = 142 animals, daily gavage 40 mg/kg for 7 days
[8] = tested on: prostate cancer cell lines
[9] = tested on: iNOS mRNA
[10] = tested on: HUVEC; conditions: in vitro
[11] = molecular target: T2, COX-2 (Homo sapiens, UniProt P35354); conditions: in vitro
T2 sequence (P35354 18-604): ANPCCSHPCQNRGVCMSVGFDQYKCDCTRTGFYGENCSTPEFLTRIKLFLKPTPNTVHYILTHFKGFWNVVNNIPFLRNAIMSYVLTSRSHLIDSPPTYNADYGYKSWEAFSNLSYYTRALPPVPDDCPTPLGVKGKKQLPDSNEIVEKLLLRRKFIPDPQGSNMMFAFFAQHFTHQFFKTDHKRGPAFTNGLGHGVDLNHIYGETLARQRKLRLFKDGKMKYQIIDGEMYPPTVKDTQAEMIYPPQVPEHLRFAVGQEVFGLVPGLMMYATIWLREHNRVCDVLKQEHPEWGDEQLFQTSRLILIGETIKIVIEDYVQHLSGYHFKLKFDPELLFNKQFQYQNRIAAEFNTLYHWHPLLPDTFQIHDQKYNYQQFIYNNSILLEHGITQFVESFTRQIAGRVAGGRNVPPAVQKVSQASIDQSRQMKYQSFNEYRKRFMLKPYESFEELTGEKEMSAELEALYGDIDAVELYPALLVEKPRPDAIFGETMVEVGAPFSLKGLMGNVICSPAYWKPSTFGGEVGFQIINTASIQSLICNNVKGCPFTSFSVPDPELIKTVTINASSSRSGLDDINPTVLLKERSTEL

[12] = tested on: metastatic melanoma cells; conditions: metastatic melanoma cells in vitro
[13] = two dose-escalation studies in humans
[14] = rats
[15] = not given; remark: listed apart in the source
[16] = 18 KS patients, sampling lasted only 24 h
[17] = tested on: refractory metastatic cancers
[18] = tested on: human umbilical vein endothelial cells (HUVECs); conditions: HUVECs stimulated with angiogenic factors in vitro
[19] = tested on: AIDS-associated Kaposi's sarcoma
[20] = stability and solubility inversely related
[21] = monkeys, any dosing schedule, after three to five doses
[22] = not given; remark: listed apart in the source
[23] = rats, single oral dose of suspension
[24] = tested on: rheumatoid arthritis synoviocytes; conditions: activity comparable to doxycycline
[25] = tested on: Dunning MatLyLu rat prostate tumor
[26] = molecular target: MMP-9 (Homo sapiens, UniProt P14780); conditions: of the seven CMTs evaluated, zymography
[27] = tested on: human melanoma cell line; conditions: activity comparable to doxycycline
[28] = non-competitive component, read-out: Ki′ (the dissociation equilibrium constant) value for MMP-2
[29] = 35 patients with refractory metastatic cancers

MMP-9, sequence (P14780 94-707): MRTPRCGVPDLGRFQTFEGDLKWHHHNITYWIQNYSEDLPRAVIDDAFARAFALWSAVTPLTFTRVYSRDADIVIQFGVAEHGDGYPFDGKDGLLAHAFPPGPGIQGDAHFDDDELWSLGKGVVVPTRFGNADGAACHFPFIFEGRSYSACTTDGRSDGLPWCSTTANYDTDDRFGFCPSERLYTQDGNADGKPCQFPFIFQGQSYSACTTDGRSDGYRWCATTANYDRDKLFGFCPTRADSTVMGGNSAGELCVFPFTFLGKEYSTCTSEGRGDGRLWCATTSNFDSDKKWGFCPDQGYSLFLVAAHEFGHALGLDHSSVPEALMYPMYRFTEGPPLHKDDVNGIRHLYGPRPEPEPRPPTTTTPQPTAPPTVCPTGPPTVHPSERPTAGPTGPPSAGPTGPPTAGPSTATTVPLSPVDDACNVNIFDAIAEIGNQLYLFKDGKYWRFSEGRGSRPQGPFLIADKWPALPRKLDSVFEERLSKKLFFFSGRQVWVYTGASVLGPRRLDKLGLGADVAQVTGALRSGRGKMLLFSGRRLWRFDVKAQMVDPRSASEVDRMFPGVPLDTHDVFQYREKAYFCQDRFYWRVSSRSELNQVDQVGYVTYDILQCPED

effect on immune responses [1]: moderately inhibit immune responses
Ki [3, 28]: 144 µM
Compound: C[C@H]1c2cccc(O)c2C(=O)C2=C(O)[C@]3(O)C(=O)C(C(N)=O)=C(O)[C@@H](N(C)C)[C@@H]3[C@@H](O)[C@@H]21 [doxycycline]
hepatotoxic effect [2]: hepatotoxic effect
cytotoxicity [4]: significantly cytotoxic

Compound: NC(=O)C1=C(O)C[C@@H]2C[C@@H]3Cc4cccc(O)c4C(=O)C3=C(O)[C@]2(O)C1=O [CMT-3]
metastatic invasion compared with control animals ([5]; higher dose 100 mg/kg): did not significantly impact
number of lung foci ([5]; orally at 40 mg/kg): significantly reduced
rank as MMP-2 inhibitor [6]: most effective MMP-2 inhibitor
adverse effects or weight loss [7]: no adverse effects or weight loss
dose with histopathological lesions in the small intestine and thymus (rats): 100 mg/kg/day
plasma level at which dose-limiting gastrointestinal toxicities occurred (rats (stated for both species)): ≥ 15000 ng/mL
apoptosis, necrosis and cell-cycle arrest ([8]; added to prostate cell lines in vitro): increased apoptosis and necrosis as well as cell-cycle arrest
time of exposure to apoptosis induction ([8]; prostate cancer cell lines): ≤ 4 h
induction of apoptosis ([8]; prostate cancer cell lines, concentration-dependent): induced apoptosis
iNOS mRNA degradation [9]: increases iNOS mRNA degradation
HUVEC proliferation [10]: inhibited HUVEC proliferation
COX-2 enzyme activity [11]: inhibit COX-2 enzyme activity
vascular mimicry [12]: inhibited this mechanism
dose up to which plasma levels increased (plateau of steady-state concentration above) [13]: up to 50 mg/m^2/day
terminal half-life [14]: 7 h
total apparent clearance [15, 29]: 0.163 ± 0.0967 mL/min/kg
median half-life ([15]; 35 patients, one-compartment model): approximately 56.1 h
median apparent total clearance ([15]; humans): 0.17 mL/min/kg
median pseudo-steady-state apparent volume of distribution ([15]; humans): 0.64 L/kg
Ki ([3]; competitive component, read-out: dissociation binding constant (Ki) value for MMP-2): 74 µM
Ki [3, 28]: 148 µM
median half-life [16]: 39.3 h
patients experiencing some phototoxicity ([17]; 50 mg/m^2/day, sun-block mandatory): over 50%
cases of drug-induced lupus [17, 29]: three cases
cases of reversible sideroblastic anemia [17, 29]: three cases
maximum tolerated dose (MTD) [17, 29]: 98 mg/m^2/day
change between pre- and post-treatment levels of MMP-2 or MMP-9 ([17]; 35 patients, overall): no significant change
sunburn (photosensitivity), dose-limiting ([17]; highest dose 98 mg/m^2/day, despite prophylactic measures): all 18 patients developed sunburn
musculoskeletal side effects ([17]; human trials): no reports
disease-stabilization ([17]; three out of seven patients with tumors of non-epithelial origin): 43%
microtubule formation [18]: inhibited microtubule formation
median duration of response ([19]; 18 KS patients): > 25 weeks
median time to response ([19]; 18 KS patients): 4 weeks
overall response rate ([19]; 18 KS patients, one complete and seven partial responses): 44%
doses not tolerated ([19]; KS patients): > 50 mg/m^2/day
evaluable patients with decrease in plasma concentration of MMP-2 ([19]; KS patients): 61%
evaluable patients with decrease in plasma concentration of MMP-9 ([19]; KS patients): 37%
doses reasonably well tolerated ([19]; KS patients, dose levels 25, 50 and 70): up to 70 mg/m^2/day
increase of MMP-2 level from baseline ([19]; non-responding patients): 300 ng/mL
decrease of MMP-2 level from baseline ([19]; responding patients): 56 ng/mL
pH of maximum stability [20]: < 4
dose resulting in mortalities [21]: 100 mg/kg/day
water solubility [22]: ~10 µg/mL (≈ 26.9 µM)
half-life [23]: approximately 6 h
inhibiting the in vitro invasive ability [24]: most active
cytotoxicity [4]: significantly cytotoxic
instances of lung metastases ([25]; daily gavage at 40 mg/kg for 7 days, controls 59.5±13.9): 28.9±15.4 tumors/animal
decrease of primary tumor incidence ([25]; pre-dosing the rats for 7 days): 55±9%
delay of tumor growth ([25]; pre-dosing the rats for 7 days): 27±9.3%
reduction in metastases ([25]; pre-dosing the rats for 7 days): 58±8%
rank as MMP-9 inhibitor [26]: second most potent MMP-9 inhibitor
inhibiting the in vitro invasive ability [27]: most active
